{"source": "paper PMC3278463", "about": "“Quercetin-4′-O-β-D-glucopyranoside (QODG) Inhibits Angiogenesis by Suppressing VEGFR2-Mediated Signaling in Zebrafish and Endothelial Cells” (PLoS ONE, 2012)", "target": "VEGFR2 (KDR/Flk-1) (Homo sapiens, UniProt P35968)", "sequence (P35968 20-1356)": "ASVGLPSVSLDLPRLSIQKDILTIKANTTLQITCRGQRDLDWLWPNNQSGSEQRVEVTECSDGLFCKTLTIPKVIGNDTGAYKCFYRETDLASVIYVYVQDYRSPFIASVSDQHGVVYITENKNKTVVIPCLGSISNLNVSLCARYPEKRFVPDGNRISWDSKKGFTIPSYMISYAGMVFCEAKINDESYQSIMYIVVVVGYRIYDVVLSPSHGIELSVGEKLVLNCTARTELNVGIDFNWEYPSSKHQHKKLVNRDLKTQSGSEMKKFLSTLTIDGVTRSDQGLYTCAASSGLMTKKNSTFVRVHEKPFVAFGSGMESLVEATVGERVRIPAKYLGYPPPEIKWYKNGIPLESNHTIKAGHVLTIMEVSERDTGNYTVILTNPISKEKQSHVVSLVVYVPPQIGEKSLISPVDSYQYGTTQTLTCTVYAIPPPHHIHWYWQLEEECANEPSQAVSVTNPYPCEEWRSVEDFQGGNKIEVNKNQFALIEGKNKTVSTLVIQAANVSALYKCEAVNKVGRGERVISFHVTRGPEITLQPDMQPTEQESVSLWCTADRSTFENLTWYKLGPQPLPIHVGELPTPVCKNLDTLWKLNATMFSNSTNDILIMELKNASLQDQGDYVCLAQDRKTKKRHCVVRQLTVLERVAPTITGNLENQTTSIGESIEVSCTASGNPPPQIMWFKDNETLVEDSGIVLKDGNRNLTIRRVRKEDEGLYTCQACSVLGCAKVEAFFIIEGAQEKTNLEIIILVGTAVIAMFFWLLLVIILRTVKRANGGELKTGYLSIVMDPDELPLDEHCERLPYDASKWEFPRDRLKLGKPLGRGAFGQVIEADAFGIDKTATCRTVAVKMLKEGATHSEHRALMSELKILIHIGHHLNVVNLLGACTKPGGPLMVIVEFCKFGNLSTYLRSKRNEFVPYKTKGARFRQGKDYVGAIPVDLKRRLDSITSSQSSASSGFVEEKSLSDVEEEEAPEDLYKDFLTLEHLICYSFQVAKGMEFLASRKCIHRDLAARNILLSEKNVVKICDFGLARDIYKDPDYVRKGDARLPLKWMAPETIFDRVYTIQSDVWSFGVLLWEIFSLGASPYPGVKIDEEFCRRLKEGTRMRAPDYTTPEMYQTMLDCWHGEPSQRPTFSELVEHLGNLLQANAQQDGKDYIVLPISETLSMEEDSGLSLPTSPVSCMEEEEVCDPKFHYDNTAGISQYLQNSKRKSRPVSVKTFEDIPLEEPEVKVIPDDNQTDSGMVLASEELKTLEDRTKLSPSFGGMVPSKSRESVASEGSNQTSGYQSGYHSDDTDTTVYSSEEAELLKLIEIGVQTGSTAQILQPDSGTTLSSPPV", "experiment": "ELISA-based in vitro VEGFR2 tyrosine kinase assay (HTScan VEGFR2 kinase assay kit)", "assay_type": "biochemical", "data": [{"smiles": "O=c1c(O)c(-c2ccc(O[C@@H]3O[C@H](CO)[C@@H](O)[C@H](O)[C@H]3O)c(O)c2)oc2cc(O)cc(O)c12", "note": "[QODG, Quercetin-4′-O-β-D-glucopyranoside]", "values": [{"measurement": "IC50", "value": 20.1, "unit": "nM"}]}]}
